Results reported in BindingDB's records for doi:10.7270/Q2G44NRK (Burnham Center For Chemical Genomics, 2010).

Molecular target: Mu-type opioid receptor (Homo sapiens, UniProt P35372)
Assay: mu opioid receptor blockers – image-based, SAR follow-up (AID 2420)

Mu-type opioid receptor, sequence (P35372 whole entry): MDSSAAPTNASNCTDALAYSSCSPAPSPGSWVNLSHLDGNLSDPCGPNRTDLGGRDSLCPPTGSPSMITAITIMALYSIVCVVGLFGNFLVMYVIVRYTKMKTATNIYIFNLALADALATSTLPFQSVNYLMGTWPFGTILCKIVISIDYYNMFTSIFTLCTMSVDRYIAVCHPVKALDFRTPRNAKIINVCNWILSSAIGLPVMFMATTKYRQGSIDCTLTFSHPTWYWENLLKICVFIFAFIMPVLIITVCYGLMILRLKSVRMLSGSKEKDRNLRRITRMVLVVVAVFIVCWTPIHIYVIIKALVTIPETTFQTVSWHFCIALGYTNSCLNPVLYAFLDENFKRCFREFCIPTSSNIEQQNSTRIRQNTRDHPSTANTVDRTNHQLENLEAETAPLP

IC50	SMILES
> 32 µM	CCC(N=Nc1ccnc2cc(Cl)ccc12)c1ccc(O)cc1 (configuration not stated) [4-[1-[2-(7-chloroquinolin-4-yl)hydrazinyl]propylidene]cyclohexa-2,5-dien-1-one]
> 32 µM	Oc1ccc(CN=Nc2ccnc3cc(Cl)ccc23)cc1O [(4Z)-4-[[2-(7-chloroquinolin-4-yl)hydrazinyl]methylidene]-2-hydroxycyclohexa-2,5-dien-1-one]
